Source: US5994406A, “Geminal cationic surfactants of the type Nα Nω bis (Nα-acyl-arginin) α,ω diamino alkyl dichlorohydrates as antimicrobial agents” (Consejo Superior Investigaciones Cientificas, priority 1995, dated 1999)
≈ marks a conversion by molar mass, not a printed value. Read-outs that look alike come from different tables or passages of the source.

Key:
[1] = system: Bordeltella bronchiseptica ATCC; assay: antimicrobial activity, MIC, organism 2; format: cell-based
Protocol: (§1) The main properties of the surface activity in aqueous solution at 25° C. which define the practical interest of a surfactant; surface stress to the critical micellar concentration (γ) and critical micellar concentration (CMC) have been determined according to conventional methods. Likewise, the antimicrobial activity has been evaluated based on the inhibiting minimum concentration values (MIC) expressed in μg/mL following the most common methodologies. Table 1 indicates the values of […], CMC and MIC for two dimers of the same homologeous series; C4 (KA)2 (X=8,n=4) and C4 (LA)2 (X=10, n=4). For the purpose of comparisons in this same table the same values are indicated for the monocatenary compounds KAM and LAM respectively.
2. Bordeltella bronchiseptica ATCC

[2] = critical micellar concentration (CMC), aqueous solution 25° C; format: physicochemical
Protocol: as §1

[3] = system: Streptococcus faecalis ATCC 10541; assay: antimicrobial activity, MIC, organism 3; format: cell-based
Protocol: as §1
3. Streptococcus faecalis ATCC 10541

[4] = system: Staphylococcus epidermidis ATCC 1551; assay: antimicrobial activity, MIC, organism 6; format: cell-based
Protocol: as §1
6. Staphylococcus epidermidis ATCC 1551

[5] = surface activity: surface tension at the critical micellar concentration, aqueous solution 25° C; format: physicochemical; set-up: unit not given here
Protocol: as §1

[6] = system: Bacilus subtilis ATCC 6633; assay: antimicrobial activity, MIC, organism 4; format: cell-based
Protocol: as §1
4. Bacilus subtilis ATCC 6633

[7] = system: Micrococcus luteus ATCC 9341; assay: antimicrobial activity, MIC, organism 7; format: cell-based
Protocol: as §1
7. Micrococcus luteus ATCC 9341

[8] = system: Alcaligenes faecalis ATTCC 8750; assay: antimicrobial activity, minimum inhibitory concentration (MIC), organism 1; format: cell-based
Protocol: as §1
1. Alcaligenes faecalis ATTCC 8750

[9] = system: Staphylococcus aereus ATCC 25178; assay: antimicrobial activity, MIC, organism 5; format: cell-based
Protocol: as §1
5. Staphylococcus aereus ATCC 25178

| MIC ([1]; read-out: MIC) [µg/mL] | CMC [2] [mM] | MIC ([3]; Enterococcus faecalis, ATCC10541, read-out: MIC) [µg/mL] | MIC ([4]; ATCC1551, read-out: MIC) [µg/mL] | surface stress (γ) at the critical micellar concentration [5] | MIC ([6]; read-out: MIC) [µg/mL] | MIC ([7]; ATCC9341, read-out: MIC) [µg/mL] | MIC ([8]; ATTCC8750, read-out: MIC) [µg/mL] | MIC ([9]; ATCC25178, read-out: MIC) [µg/mL] | MIC [1] [µg/mL] | MIC [3] [µg/mL] | MIC [4] [µg/mL] | MIC [6] [µg/mL] | MIC [7] [µg/mL] | MIC [8] [µg/mL] | MIC [9] [µg/mL] | Compound |
| --- | --- | --- | --- | --- | --- | --- | --- | --- | --- | --- | --- | --- | --- | --- | --- | --- |
| 32 (≈ 45.1 µM) | 7.8e-06 | 16 (≈ 22.6 µM) | 8 (≈ 11.3 µM) | 25 | 8 (≈ 11.3 µM) | 8 (≈ 11.3 µM) | 64 (≈ 90.3 µM) | 8 (≈ 11.3 µM) | – | – | – | – | – | – | – | CCCCCCCCCC(=O)N[C@@H](CCCNC(=N)N)C(=O)NCCCCNC(=O)[C@H](CCCNC(=N)N)NC(=O)CCCCCCCCC [C4 (KA)2, Nα, Nω, Bis (Nα -Decanoilarginin) α,ω-Diaminobuthylamide] |
| – | 0.0037 | – | – | 30.0 | – | – | – | – | > 128 | 32 (≈ 86.4 µM) | 64 (≈ 173 µM) | > 128 | > 128 | 64 (≈ 173 µM) | 64 (≈ 173 µM) | CCCCCCCCCCCC(=O)N[C@@H](CCCN=C(N)N)C(=O)OC [LAM] |
